Results on 12 compounds are retold here after patent US20080255111A1, “Tissue Factor Production Inhibitor” (SANKYO COMPANY LIMITED, priority 2004, published 2008).

The structures appear in SMILES notation.

The test system of the first assay is tissue factor mRNA in LPS-stimulated mouse peritoneal macrophages. The experiment in a line: Assay of mouse peritoneal macrophage tissue factor mRNA. The format is cell-based. The conditions noted are these: 6 h, read-out: Expressed Amount of Tissue Factor mRNA. The procedure:
3 ml of thioglycolate (Sigma Chemical) were administered into the abdominal cavity of male C57BL/6J mice (Charles River) followed 4 days later by intraperitoneal administration of 10 ml of phosphate-buffered saline (hereinafter PBS) containing heparin (Hishiyama Pharmaceutical) at a concentration of 5 U/ml and recovery of intraperitoneal macrophages using a syringe. After centrifuging the recovered macrophages at 1000 rpm and 4° C. for 5 minutes, the supernatant was discarded followed by suspending in RPMI 1640 medium (Gibco Laboratories) containing normal fetal bovine serum (hereinafter FBS) at a concentration of 10%. The macrophages were adjusted to a concentration of 4×10^6 cells/ml, disseminated in 1 ml aliquots in a 12-well plate, and cultured for 3 hours at 37° C. using a CO2 incubator. Subsequently, the cells were washed with PBS, and the medium was replaced with RPMI medium containing lipoprotein-deficient serum (hereinafter LPDS) (Sigma Chemical) at a concentration of 5%. Test compounds dissolved in dimethylsulfoxide (DMSO) at a concentration of 1 μM were added to make a final DMSO concentration of 0.1%, and after warming for 18 hours at 37° C., lipopolysaccharide (hereinafter LPS) (Sigma Chemical) was added to make a concentration of 100 ng/ml. The cells were recovered 6 hours later, RNA was extracted using the Rneasy Mini Kit (Qiagen), and after carrying out a reverse transcription reaction using the First-Strand cDNA Synthesis Kit (Amersham Biosciences), the expressed amounts of tissue factor mRNA and cyclophylin mRNA were measured by quantitative RT-PCR (TaqMan, Applied Biosystems 7700 Sequence Detector).
Quantitative RT-PCR for tissue factor was carried out using the aforementioned TF-1 and TF-2 as primers and TF-P as probes, while quantitative PCR for cyclophilin was carried out using the aforementioned Cyl-1 and Cyl-2 as primers and Cyl-P as probes. Both were carried out by warming for 2 minutes at 50° C. and then for 10 minutes at 95° C., followed by 40 warming cycles consisting of warming for 15 seconds at 95° C. and then for 1 minute at 60° C. The expressed amount of tissue factor mRNA was calculated as a relative value of the expressed amount of cyclophilin mRNA. The expressed amounts of tissue factor mRNA resulting from the test compounds at a concentration of 1 μM or 10 μM based on a value of 100 for the expressed amount of tissue factor mRNA in a case of treatment with DMSO at a concentration of […] are shown in Table 7.
As for `C[C@H](CCC(=O)N(C)C)[C@H]1CCC2C3CC=C4C[C@@H](O)CC[C@]4(C)C3CC[C@@]21C` (stereo partly drawn) [Compound J, N,N-Dimethyl-3β-hydroxycholenamide, reference compound], the mrna remaining at 10 µM was determined as 39.3%.

Staying with this assay, now noted: test compound 1 μM, 18 h, then LPS 100 ng/ml for 6 h, relative to cyclophilin mRNA, DMSO treatment = 100, read-out: Expressed Amount of Tissue Factor mRNA.
Turning to `CC(C)(C)OC(=O)n1c(COc2ccc(-c3ccc(CC(=O)O)cc3)cc2)cc2ccc(F)cc21` [Reference Example 9, (4′-{[1-(tert-Butoxycarbonyl)-6-fluoro-1H-indol-2-yl]methoxy}-1,1′-biphenyl-4-yl)acetic acid], the mrna remaining at 1 µM came out at 66%. Still for that read-out and setting: the figure for `CCc1cc(CC(=O)O)ccc1-c1ccc(OCc2ccc(C(F)(F)F)c(O)c2C(=O)OC(C)(C)C)cc1` [Reference Example 15, (4′-{[2-(tert-Butoxycarbonyl)-3-hydroxy-4-(trifluoromethyl)benzyl]oxy}-2-ethyl-1,1′-biphenyl-4-yl)acetic acid] is 55.5%.

For `Cc1cc(C(O)(C(F)(F)F)C(F)(F)F)ccc1-n1c(Cc2cccnc2)nc2ccc(-n3cncn3)cc2c1=O` [Compound I, 3-{2-Methyl-4-[2,2,2-trifluoro-1-hydroxy-1-(trifluoromethyl)ethyl]phenyl}-2-(3-pyridylmethyl)-6-(1H-1,2,4-triazol-1-yl)-4(3H)-quinazolinone], the mrna remaining at 1 µM is 48.6%. Turning to `CCc1ccc(COc2ccc(N(C)C(C)=O)cc2)c(C(=O)OC(C)(C)C)c1O` [Reference Example 7, tert-Butyl 6-({4-[acetyl(methyl)amino]phenoxy}methyl)-3-ethyl-2-hydroxybenzoate], the mrna remaining at 1 µM is 68%. The same measure, in the same setting: the figure for `CN(C(=O)C1CC1)c1ccc(OCc2ccc(C(F)(F)F)c(O)c2C(=O)OC(C)(C)C)cc1` [Reference Example 5, tert-Butyl 6-({4-[(cyclopropylcarbonyl)(methyl)amino]phenoxy}methyl)-2-hydroxy-3-(trifluoromethyl)benzoate] is 64.3%; for `CC(C)(C)OC(=O)c1c(COc2ccc(-c3ccc(CC(=O)O)cc3)cc2)ccc(C(F)(F)F)c1O` [Reference Example 13, (4′-{[2-(tert-Butoxycarbonyl)-3-hydroxy-4-(trifluoromethyl)benzyl]oxy}-1,1′-biphenyl-4-yl)acetic acid] it is 65.4%. For the compound `O=S(=O)(c1ccccc1)N(CC(F)(F)F)c1ccc(C(O)(C(F)(F)F)C(F)(F)F)cc1` [Compound A, N-(2,2,2-Trifluoroethyl)-N-{4-[2,2,2-trifluoro-1-hydroxy-1-(trifluoromethyl)ethyl]phenyl}benzenesulfonamide, reference compound], the mrna remaining at 1 µM came out at 20%. For `CC(C)(C)OC(=O)n1c(COc2ccc(-c3ccc(CC(=O)O)cc3Cl)cc2)cc2ccc(F)cc21` [Reference Example 12, (4′-{[1-(tert-Butoxycarbonyl)-6-fluoro-1H-indol-2-yl]methoxy}-2-chloro-1,1′-biphenyl-4-yl)acetic acid], the mrna remaining at 1 µM turned out to be 54.3%.

The same assay, now with this note: test compound 10 μM, 18 h, then LPS 100 ng/ml for 6 h, relative to cyclophilin mRNA, DMSO treatment = 100, read-out: Expressed Amount of Tissue Factor mRNA.
Turning to `CC(C)(C)OC(=O)c1c(COc2ccc(-c3ccc(CC(=O)O)cc3)cc2)ccc(Cl)c1O` [Reference Example 20, (4′-{[2-(tert-Butoxycarbonyl)-4-chloro-3-hydroxybenzyl]oxy}-1,1′-biphenyl-4-yl)acetic acid], the mrna remaining at 10 µM was determined as 58.1%. Still for that read-out and setting: the figure for `COc1cc(-n2c(Cc3ccccc3)nc3cc(N4CCOCC4)c(F)cc3c2=O)ccc1C(O)(C(F)(F)F)C(F)(F)F` [Compound H, 2-Benzyl-6-fluoro-3-{3-methoxy-4-[2,2,2-trifluoro-1-hydroxy-1-(trifluoromethyl)ethyl]phenyl}-7-(4-morpholinyl)-4(3H)-quinazolinone] is 56%. Consider `COc1cc2nc(Cc3ccsc3)n(-c3cc(C(O)(C(F)(F)F)C(F)(F)F)ccc3C)c(=O)c2cc1Cl` [Reference Example 1, 6-Chloro-7-methoxy-3-{2-methyl-5-[2,2,2-trifluoro-1-hydroxy-1-(trifluoromethyl)ethyl]phenyl}-2-(3-thienylmethyl)-4(3H)-quinazolinone], for which the mrna remaining at 10 µM stood at 41.1%.
